From patent US20220280501A1, “USING GENO- OR P[…] ADJUST LSD DOSING” (Universitätsspital Basel, priority 2021, published 2022)
Entries after “also recorded” stand apart in the source; their conditions may differ. Like-named read-outs stand apart in the source and are kept apart here.

Columns and labels:
[1] = cited from earlier work; for subjects with bad drug effects (50% or more on a 0-100% scale at any time point): Dolder et al., 2017a
[2] = human, Dolder et al., 2015; cited from earlier work
[3] = Holze et al., 2021b; cited from earlier work
[4] = system: cytochrome P450 enzymes (CYPs); details: human liver microsomes; cited from earlier work
[5] = system: cytochrome P450 enzymes (CYPs); details: human liver S9 fraction; cited from earlier work
[6] = Pharmacokinetics of LSD by CYP genotype, pooled analysis of four phase 1 studies; details: for Cmax: human, oral, 100 ug, LSD Cmax, compartmental modeling, 100 μg LSD dose, mean±SD
[7] = Autonomic (physiological) effects of LSD, pooled phase 1 studies; format: in vivo, humans
Procedure: Blood pressure, heart rate, and body temperature were assessed repeatedly before and 0, 0.5, 1, 1.5, 2, 2.5, 3, 4, 5, 6, 7, 8, 9, and 10 h after LSD or placebo administration. Systolic and diastolic blood pressure and heart rate were measured using an automatic oscillometric device (OMRON Healthcare Europe NA, Hoofddorp, Netherlands). The measurements were performed in duplicate at an interval of 1 minute and after a resting time of at least 5 minutes. The averages were calculated for the analysis. Mean arterial pressure (MAP) was calculated as diastolic blood pressure+(systolic blood pressure−diastolic blood pressure)/3. The rate pressure product (RPP) was calculated as systolic blood pressure×heart rate. Core (tympanic) temperature was measured using a Genius 2 ear thermometer (Tyco Healthcare Group LP, Watertown, N.Y., USA).

[8] = cited from earlier work; for duration of LSD effects (mean±SD) / duration of LSD effects (range): Dolder et al., 2017b
[9] = Acute subjective effects of LSD (VAS, 5D-ASC) by genotype, pooled phase 1 studies; format: in vivo, humans
Procedure: The Visual Analog Scales (VASs, FIG. 14, Table S5) were presented as 100 mm horizontal lines (0-100%), marked from “not at all” on the left to “extremely” on the right. Subjective effects like “closeness”, “talkative”, “open”, “concentration”, “speed of thinking”, and “trust” were bidirectional (±50 mm). The VASs were applied before and 0, 0.5, 1, 1.5, 2, 2.5, 3, 4, 5, 6, 7, 8, 9 and 10 h after LSD or placebo administration.
The 5 Dimensions of Altered States of Consciousness (5D-ASC) scale (Dittrich, 1998; Studerus et al., 2010) was administered at the end of the acute drug effects to retrospectively rate peak drug responses. The main subscales describing alterations of consciousness are Oceanic Boundlessness (OB), Anxious of Ego Dissolution (AED), Visionary Restructuralization (VR) (FIG. 16).

[10] = non-compartmental analysis, plasma
[11] = non-functional vs functional CYP2D6

CCN(CC)C(=O)[C@@H]1C=C2c3cccc4[nH]cc(c34)C[C@H]2N(C)C1 [LSD, Lysergic acid diethylamide]
subjects with bad drug effects (50% or more on a 0-100% scale at any time point) ([1]; 100 μg, 3 of 24 subjects): 12.5%
subjects with transient bad drug effects ([1]; 100 μg, 7 of 24 subjects, Holze et al., 2019a): 29%
subjects with bad drug effects (50% or more on a 0-100% scale at any time point) ([1]; 200 μg, 9 of 16 subjects): 56%
subjects with marked anxiety ([1]; 200 μg, sixteen healthy humans, Schmid et al., 2015): two
parent drug excreted in urine [2]: ~1%
5D-ASC OB, AED and anxiety ratings, 200 μg compared to 100 μg [3]: did not result in higher OB ratings but increased AED and anxiety
CYPs contributing to the N-demethylation of LSD to 6-nor-LSD (Nor-LSD) [4]: CYP2D6, 3A4, and 2E1
CYPs taking part in the formation of the main metabolite 2-oxo-3-hydroxy-LSD (O-H-LSD) [4]: CYP2C9, CYP1A2, CYP2E1, and CYP3A4
CYPs contributing to the hydroxylation of LSD [5]: CYP1A2 and CYP3A4
CYPs involved in the formation of Nor-LSD [5]: CYP2C19 and 3A4
effect of genetic polymorphisms of other CYPs on pharmacokinetics or subjective or autonomic effects ([6]; CYP1A2, CYP2B6, CYP2C19, CYP2C9): no relevant effect
exposure to LSD with lower CYP2D6 activity across all CYP2D6 genotype activity score groups ([6]; CYP2D6 activity score groups): significantly higher exposure
effect of sex or body weight on pharmacokinetics / concentration of LSD in plasma ([6]; LSD AUC∞ z-score vs body weight): no relevant effect; also recorded: did not relevantly alter
Cmax ([6]; plasma, CYP2D6 PMs (non-functional, N=7)): 2.37 ± 0.891 ng/mL
Cmax ([6]; plasma, functional CYP2D6 subjects (N=74)): 2.06 ± 0.999 ng/mL
AUC∞ and AUC10 values, CYP2D6 PMs compared with functional CYP2D6 carriers [6, 10]: significantly larger
Cmax, effect of CYP2D6 function [6, 10]: not significantly affected
area under the curve blood plasma concentration (total drug exposure), higher in CYP2D6 poor metabolizers than in functional CYP2D6 carriers [6, 11]: approximately 75%
half-life (T1/2), CYP2D6 PMs compared with functional CYP2D6 subjects [6, 11]: longer
mean peak concentration, higher in CYP2D6 PMs than in functional CYP2D6 ([6]; non-functional vs functional CYP2D6, non-significant): approximately 15%
vital parameters, effect of 5-HT receptor genotypes ([7]; HTR1A, HTR1B, HTR2A genotypes): not affected
blood pressure, heart rate, and body temperature compared to placebo ([7]; healthy subjects): moderately increased
effect of CYP2D6 genotype on the autonomic response ([7]; in vivo): no relevant effect
duration of LSD effects (mean±SD) ([8]; 100 μg): 8.2 ± 2.1 h
duration of LSD effects (range) ([8]; 100 μg): 5 to 14 h
duration of subjective effects (mean±SD) ([8]; 100 μg, Holze et al., 2019): 8.5 ± 2.0 h
duration of subjective effects (range) ([8]; 100 μg, Holze et al., 2019): 5.3 to 12.8 h
duration of LSD effects (mean±SD) ([8]; 200 μg): 11.6 ± 1.7 h
duration of LSD effects (range) ([8]; 200 μg): 7 to 19.5 h
alterations of the mind (5D-ASC total, AED and VR subscales), CYP2D6 PMs compared with functional CYP2D6 subjects ([9]; 5D-ASC): significantly greater alterations of the mind
5D-ASC total score and VR subscale, homozygous carriers of HTR1A rs6295 G allele vs carriers of a C allele ([9]; HTR1A rs6295): rated lower; also recorded: lower total 5D-ASC, Visionary Restructuralization, and Blissful State ratings
5D-ASC total score and AED subscale, carriers of two HTR2A rs6313 A alleles vs G allele carriers ([9]; HTR2A rs6313): lower ratings; also recorded: lower alterations of the mind
duration of the acute subjective response, CYP2D6 PMs compared with functional CYP2D6 subjects ([9]; VAS any drug effect): substantially longer duration; also recorded: longer subjective effect durations
acute subjective effects compared to placebo ([9]; healthy subjects): significant acute subjective effects on all scales

CCN(CC)C(=O)[C@@H]1C=C2c3cccc4c3C(O)(C[C@H]2N(C)C1)C(=O)N4 (stereo partly drawn) [O-H-LSD, 2-oxo-3-hydroxy LSD]
AUC∞ values, CYP2D6 PMs compared with functional CYP2D6 subjects ([6]; metabolite in plasma after LSD administration): larger
area under the curve blood plasma concentration (total drug exposure), higher in CYP2D6 poor metabolizers than in functional CYP2D6 carriers [6, 11]: approximately 75%
